Measured values taken from patent US10590126B2, “Non-selective protease activated receptor 4 ALA120THR isoform antagonist” (THOMAS JEFFERSON UNIVERSITY, priority 2015, dated 2020).
“Also recorded” adds a separate entry of the source.

Assays:
[1] = test system: PAR4 Ala120 and Thr120 variants; experiment: PAR4-induced platelet activation, platelets of subjects of the 3 genotypes (FIG. 1); type: cell-based, human; details: subjects with and without the Thr120 variant (Ala/Ala, Ala/Thr, Thr/Thr)
Description: FIG. 1. Summary of results using all three PAR4 variants. […] Data are shown as the average of the percent of maximal activation, where maximal activation was the DMSO data.
[…] of mouse or PAC1 was added to each sample of platelets that contained compounds. 5 mL of compound was added to inhibitor samples. Tyrodes with 1% final concentration, DMSO were added to inhibitor samples with no controls. Each sample was incubated for two minutes. 5.5 mL of PAR4-AP was added to all samples except the no agonist control. Final concentrations of samples=[…]. Samples were gently mixed and sat at room temperature for 10 minutes. 50 mL of 2% paraformaldehyde was added to each sample and sat at room temperature for 10 minutes. 500 mL of Tyrodes were then added and samples were run of the C6 Accuri.

[2] = test system: platelets expressing PAR4 Ala120; details: individuals expressing PAR4 Ala120; cited from earlier work
[3] = test system: platelets expressing PAR4 Thr120; details: individuals expressing PAR4 Thr120; cited from earlier work

| Structure (SMILES) | blockade of PAR4-induced platelet activation [1] | blockade of PAR4-induced platelet activation ([1]; listed as VU478046-1) | inhibiting platelet aggregation [2] | inhibiting platelet aggregation [3] |
| --- | --- | --- | --- | --- |
| CCCNCc1c(-c2ccccc2)c2cc([N+](=O)[O-])ccc2n1C [VU0478046-1] | effectively blocked | greatest effective blockade | – | – |
| Cn1c(CO)c(-c2ccccc2)c2cc([N+](=O)[O-])ccc21 [VU0099704-4] | effectively blocked; also recorded: greatest effective blockade | – | – | – |
| CNCc1c(-c2ccccc2)c2cc([N+](=O)[O-])ccc2n1C [VU0478944-1] | effectively blocked; also recorded: greatest effective blockade | – | – | – |
| COC(=O)[C@H](c1ccccc1Cl)N1CCc2sccc2C1 [clopidogrel] | – | – | selective | not effective |
